Patent US10308639B2, “Phosphatidylinositol 3-kinase inhibitors” (Gilead Sciences, Inc., priority 2014, dated 2019)

Key:
Type in all cases: biochemical
[1] = target: T1, PI3Kδ (Homo sapiens, UniProt O00329); assay: TR-FRET enzymatic activity assay, PI3Kδ; details: Table 2a; same assay
T1 construct: made in house

[2] = target: T2, PI3Kβ (Homo sapiens, UniProt P42338); assay: TR-FRET enzymatic activity assay, PI3Kβ; details: Table 2a; same assay
T2 construct: made in house

[3] = target: T3, PI3Kγ (Homo sapiens, UniProt P48736); assay: TR-FRET enzymatic activity assay, PI3Kγ; details: Table 2a; same assay; read-out: PI3Kγ IC50
T3 construct: made in house
Summary of the method: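 Each PI3K isoform is tested in an enzymatic format. Signal comes from time-resolved fluorescence energy transfer.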

T1 sequence (O00329 whole entry): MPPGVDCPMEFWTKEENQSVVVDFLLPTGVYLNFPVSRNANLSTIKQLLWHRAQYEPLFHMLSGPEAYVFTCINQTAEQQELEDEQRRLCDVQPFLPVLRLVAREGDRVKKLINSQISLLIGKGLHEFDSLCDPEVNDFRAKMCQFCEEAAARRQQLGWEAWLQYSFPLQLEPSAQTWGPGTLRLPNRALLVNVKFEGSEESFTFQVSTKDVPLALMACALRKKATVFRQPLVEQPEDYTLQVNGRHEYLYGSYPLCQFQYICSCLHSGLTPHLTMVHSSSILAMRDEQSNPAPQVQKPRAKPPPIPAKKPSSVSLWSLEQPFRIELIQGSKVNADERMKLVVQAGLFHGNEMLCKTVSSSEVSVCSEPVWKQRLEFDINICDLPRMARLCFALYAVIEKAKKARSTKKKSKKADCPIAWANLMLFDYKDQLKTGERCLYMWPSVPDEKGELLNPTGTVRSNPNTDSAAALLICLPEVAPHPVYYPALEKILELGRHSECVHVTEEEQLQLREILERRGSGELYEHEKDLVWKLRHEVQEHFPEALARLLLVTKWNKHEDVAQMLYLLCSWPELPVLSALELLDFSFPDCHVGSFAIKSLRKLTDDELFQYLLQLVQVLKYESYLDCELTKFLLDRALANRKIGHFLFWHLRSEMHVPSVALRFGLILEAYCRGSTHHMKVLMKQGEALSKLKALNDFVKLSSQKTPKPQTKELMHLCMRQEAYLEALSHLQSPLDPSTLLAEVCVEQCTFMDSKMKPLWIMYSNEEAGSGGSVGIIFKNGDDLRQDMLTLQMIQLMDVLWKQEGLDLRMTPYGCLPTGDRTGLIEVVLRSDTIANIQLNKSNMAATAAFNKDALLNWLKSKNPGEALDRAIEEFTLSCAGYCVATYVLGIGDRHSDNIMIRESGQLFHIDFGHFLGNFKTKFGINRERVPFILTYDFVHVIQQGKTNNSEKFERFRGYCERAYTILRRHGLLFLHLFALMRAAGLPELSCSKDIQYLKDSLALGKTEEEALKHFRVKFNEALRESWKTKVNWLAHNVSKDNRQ
T1 sequence (P27986 whole entry partner): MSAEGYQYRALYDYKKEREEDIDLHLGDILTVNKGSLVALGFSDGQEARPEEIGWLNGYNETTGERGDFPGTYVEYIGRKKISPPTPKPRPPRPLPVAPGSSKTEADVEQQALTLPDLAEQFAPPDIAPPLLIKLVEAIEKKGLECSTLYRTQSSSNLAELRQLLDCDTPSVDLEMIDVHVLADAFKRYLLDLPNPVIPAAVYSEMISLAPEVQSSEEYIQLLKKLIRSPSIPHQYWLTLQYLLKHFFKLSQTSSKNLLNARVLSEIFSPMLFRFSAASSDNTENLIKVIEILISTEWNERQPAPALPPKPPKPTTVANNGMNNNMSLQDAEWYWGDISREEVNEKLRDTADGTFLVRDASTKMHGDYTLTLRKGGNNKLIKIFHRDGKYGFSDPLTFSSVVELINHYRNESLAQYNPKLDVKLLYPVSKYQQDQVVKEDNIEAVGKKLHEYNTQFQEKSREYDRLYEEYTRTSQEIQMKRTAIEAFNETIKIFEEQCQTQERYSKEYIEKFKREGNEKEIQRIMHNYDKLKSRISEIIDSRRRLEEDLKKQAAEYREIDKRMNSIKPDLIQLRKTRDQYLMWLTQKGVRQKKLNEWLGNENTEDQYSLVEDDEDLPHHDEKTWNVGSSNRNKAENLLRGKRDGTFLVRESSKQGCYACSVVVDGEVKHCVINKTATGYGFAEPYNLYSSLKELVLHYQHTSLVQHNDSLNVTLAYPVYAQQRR
T2 sequence (P42338 whole entry): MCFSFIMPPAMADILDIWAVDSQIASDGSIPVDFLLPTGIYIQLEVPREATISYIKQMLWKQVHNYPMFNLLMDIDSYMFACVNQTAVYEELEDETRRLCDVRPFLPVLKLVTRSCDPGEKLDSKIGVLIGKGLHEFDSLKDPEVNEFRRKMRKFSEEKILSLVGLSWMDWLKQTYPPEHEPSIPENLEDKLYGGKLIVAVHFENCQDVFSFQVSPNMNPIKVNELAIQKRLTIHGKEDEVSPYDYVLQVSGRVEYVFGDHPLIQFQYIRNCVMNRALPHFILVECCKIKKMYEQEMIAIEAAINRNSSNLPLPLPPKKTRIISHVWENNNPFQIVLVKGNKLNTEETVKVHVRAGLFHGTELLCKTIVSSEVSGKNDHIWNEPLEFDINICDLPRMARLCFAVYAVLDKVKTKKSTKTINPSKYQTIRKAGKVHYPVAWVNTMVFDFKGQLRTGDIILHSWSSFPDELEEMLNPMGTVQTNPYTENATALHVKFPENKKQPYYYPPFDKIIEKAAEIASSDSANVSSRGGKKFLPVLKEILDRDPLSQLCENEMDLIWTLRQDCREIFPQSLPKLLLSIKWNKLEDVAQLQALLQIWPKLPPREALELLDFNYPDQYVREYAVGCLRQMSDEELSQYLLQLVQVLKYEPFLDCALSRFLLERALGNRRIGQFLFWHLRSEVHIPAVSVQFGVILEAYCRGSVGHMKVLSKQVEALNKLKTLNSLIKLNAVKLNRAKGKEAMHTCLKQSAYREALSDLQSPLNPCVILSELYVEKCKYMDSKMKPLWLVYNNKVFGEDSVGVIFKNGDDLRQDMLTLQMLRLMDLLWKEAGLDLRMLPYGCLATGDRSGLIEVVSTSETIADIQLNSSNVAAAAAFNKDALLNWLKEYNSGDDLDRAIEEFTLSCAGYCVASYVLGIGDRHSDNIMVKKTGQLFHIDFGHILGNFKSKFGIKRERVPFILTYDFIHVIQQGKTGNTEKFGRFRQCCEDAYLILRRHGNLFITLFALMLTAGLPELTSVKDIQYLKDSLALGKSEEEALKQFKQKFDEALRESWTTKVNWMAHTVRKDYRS
T2 sequence (P27986 whole entry partner): as the sequence (P27986 whole entry partner) above
T3 sequence (P48736 whole entry): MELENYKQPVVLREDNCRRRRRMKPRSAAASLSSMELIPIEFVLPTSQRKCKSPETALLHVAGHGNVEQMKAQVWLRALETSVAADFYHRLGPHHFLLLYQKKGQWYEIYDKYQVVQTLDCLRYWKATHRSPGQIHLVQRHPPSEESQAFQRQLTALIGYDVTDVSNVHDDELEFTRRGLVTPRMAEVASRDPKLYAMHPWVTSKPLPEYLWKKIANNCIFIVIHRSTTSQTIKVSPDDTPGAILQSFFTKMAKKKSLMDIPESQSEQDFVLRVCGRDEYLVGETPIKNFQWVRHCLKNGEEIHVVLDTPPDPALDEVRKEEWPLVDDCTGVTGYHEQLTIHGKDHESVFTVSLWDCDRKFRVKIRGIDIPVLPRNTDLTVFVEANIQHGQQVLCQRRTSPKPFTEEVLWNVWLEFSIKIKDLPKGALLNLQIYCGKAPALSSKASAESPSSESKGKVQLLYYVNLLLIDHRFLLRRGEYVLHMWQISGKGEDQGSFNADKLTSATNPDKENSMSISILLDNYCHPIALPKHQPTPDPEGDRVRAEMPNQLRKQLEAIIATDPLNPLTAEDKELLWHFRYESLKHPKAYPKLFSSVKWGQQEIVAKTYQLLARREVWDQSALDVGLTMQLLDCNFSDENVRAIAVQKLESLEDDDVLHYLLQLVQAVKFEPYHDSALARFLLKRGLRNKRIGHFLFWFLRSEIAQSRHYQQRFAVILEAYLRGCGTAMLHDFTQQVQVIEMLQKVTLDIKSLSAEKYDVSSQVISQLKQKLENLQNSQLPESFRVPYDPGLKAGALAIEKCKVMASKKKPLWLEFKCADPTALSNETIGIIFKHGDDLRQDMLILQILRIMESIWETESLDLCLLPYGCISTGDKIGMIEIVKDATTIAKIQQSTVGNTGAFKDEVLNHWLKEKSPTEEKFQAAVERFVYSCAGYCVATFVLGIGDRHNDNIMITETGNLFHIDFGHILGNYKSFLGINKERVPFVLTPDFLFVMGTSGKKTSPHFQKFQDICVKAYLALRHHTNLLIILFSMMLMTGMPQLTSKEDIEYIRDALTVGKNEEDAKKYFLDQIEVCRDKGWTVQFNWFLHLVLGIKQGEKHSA

| SMILES | IC50 [1] [nM] | IC50 [2] [nM] | IC50 [3] [nM] |
| --- | --- | --- | --- |
| C[C@H](Nc1nc(N)nc(N)c1C#N)c1nc2cccc(Cl)c2c(=O)n1-c1ccc[nH]1 [Compound 289, (S)-2,4-diamino-6-((1-(5-chloro-4-oxo-3-(1H-pyrrol-2-yl)-3,4-dihydroquinazolin-2-yl)ethyl)amino)pyrimidine-5-carbonitrile] | 0.2 | 5 | 12 |
| C[C@H](Nc1ncnc2scnc12)c1nc2cccc(Cl)c2c(=O)n1-c1ccc[nH]1 [Compound 290, (S)-5-chloro-3-(1H-pyrrol-2-yl)-2-(1-(thiazolo[5,4-d]pyrimidin-7-ylamino)ethyl)quinazolin-4(3H)-one] | 0.5 | 69 | 72 |
| C[C@H](Nc1ncnn2ccnc12)c1nc2cccc(Cl)c2c(=O)n1-c1ccc[nH]1 [Compound 291, (S)-5-chloro-2-(1-(imidazo[2,1-f][1,2,4]triazin-4-ylamino)ethyl)-3-(1H-pyrrol-2-yl)quinazolin-4(3H)-one] | 1 | 140 | 170 |
